# Source: PubChem BioAssay (NCI)
#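 Method: 48-hour compound exposure of cells in 96-well plates, five concentrations, linear interpolation of endpoints. At the GI50, growth is halved. TGI denotes the concentration required for complete inhibition of growth.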
# Key:
# Experiment in all cases: growth of human tumour cells (NCI), 48 h
# SK-MEL-5 melanoma = tested on: SK-MEL-5 melanoma
# SK-MEL-28 melanoma = tested on: SK-MEL-28 melanoma
# RPMI-8226 leukemia = tested on: RPMI-8226 leukemia
# KM12 colon = tested on: KM12 colon
# NCI-H460 lung = tested on: NCI-H460 lung
# SNB-75 CNS = tested on: SNB-75 CNS
# OVCAR-3 ovarian = tested on: OVCAR-3 ovarian
# TK-10 renal = tested on: TK-10 renal
# SW-620 colon = tested on: SW-620 colon
# HOP-92 NSCLC = tested on: HOP-92 NSCLC
SMILES,TGI (SK-MEL-5 melanoma),TGI (SK-MEL-28 melanoma),TGI (RPMI-8226 leukemia),TGI (KM12 colon),TGI (NCI-H460 lung),TGI (SNB-75 CNS),TGI (OVCAR-3 ovarian),TGI (TK-10 renal),TGI (SW-620 colon),GI50 (HOP-92 NSCLC),TGI (HOP-92 NSCLC),GI50 (SK-MEL-5 melanoma),GI50 (SK-MEL-28 melanoma),GI50 (RPMI-8226 leukemia),GI50 (KM12 colon),GI50 (NCI-H460 lung),GI50 (SNB-75 CNS),GI50 (OVCAR-3 ovarian),GI50 (TK-10 renal),GI50 (SW-620 colon)
CC(=O)OC1CC2C(C)(C)C(=O)C=C[C@]2(C)C2CCC3(C)C(=CCC3[C@H](CO)C[C@H](O)C(=O)C(C)(C)O)[C@]12C (stereo partly drawn),42 µM,36.5 µM,64.2 µM,39 µM,40.1 µM,91.6 µM,35.4 µM,65.9 µM,41 µM,,,,,,,,,,,
Cc1ccc(/C=C2\CN(C(=O)CCN3CCC(=NO)CC3)C/C(=C\c3ccc(C)cc3)C2=O)cc1,3.16 µM,4.63 µM,0.885 µM,,,,,,,1.86 µM,4.6 µM,1.73 µM,2.06 µM,0.286 µM,,,,,,
COc1ccccc1NC(=O)NS(=O)(=O)c1ccccc1,> 100 µM,> 100 µM,,> 100 µM,> 100 µM,> 100 µM,,> 100 µM,> 100 µM,,> 100 µM,,,,,,,,,
CCN(CC)Cc1cc(Nc2c3ccc(Cl)cc3nc3c(C)cccc23)ccc1O,3.15 µM,3.22 µM,,3.46 µM,2.7 µM,2.84 µM,3.73 µM,5.59 µM,2.53 µM,,,1.76 µM,1.78 µM,,1.59 µM,1.16 µM,1.5 µM,1.97 µM,2.69 µM,1.06 µM
Cc1cccc(Cc2cnc(NC(=O)/C=C/c3ccco3)s2)c1,3.36 µM,> 100 µM,> 100 µM,> 100 µM,> 100 µM,,0.0914 µM,> 100 µM,> 100 µM,8.5 µM,> 100 µM,0.0354 µM,> 100 µM,0.0403 µM,0.039 µM,0.0359 µM,,0.0312 µM,> 100 µM,0.0385 µM
COC(=O)C1=C(C)NC(C)=C(C(=O)OC)C1c1ccccc1[N+](=O)[O-],,> 100 µM,> 100 µM,> 100 µM,> 100 µM,> 100 µM,> 100 µM,> 100 µM,> 100 µM,23.3 µM,> 100 µM,,> 100 µM,47.6 µM,> 100 µM,97.6 µM,27 µM,93.2 µM,> 100 µM,> 100 µM
CC(C)=CCCC1(C)C=Cc2c(ccc3c2[nH]c2cc(O)c(C)cc23)O1 (stereo not drawn),9.31 µM,> 2.5 µM,18.9 µM,8.77 µM,9.7 µM,,9.07 µM,> 25 µM,9.49 µM,4.22 µM,10.2 µM,4.85 µM,,,4.74 µM,4.73 µM,,,16.7 µM,4.68 µM
O=C1/C(=C/c2ccccc2)CN(C(=O)Oc2ccccc2)C/C1=C\c1ccccc1,> 100 µM,> 100 µM,0.819 µM,> 100 µM,> 100 µM,17.5 µM,> 100 µM,42.5 µM,> 100 µM,,,,,,,,,,,
Cc1cccc2c1C(=O)OC2(c1cccc2ccccc12)c1cccc2ccccc12,> 100 µM,> 100 µM,,> 100 µM,> 100 µM,> 100 µM,> 100 µM,> 100 µM,> 100 µM,,,,,,,,,,,
C=CCN1C(=O)C/C(=C2/CCC(=O)N2CC=C)C1=O,> 100 µM,> 100 µM,,> 100 µM,> 100 µM,> 100 µM,> 100 µM,> 100 µM,> 100 µM,,> 100 µM,,,,,,,,,
O=C(O)c1ccccc1/C=C1/Nc2ccccc2C1=O,,> 100 µM,> 100 µM,> 100 µM,> 100 µM,> 100 µM,> 100 µM,> 100 µM,> 100 µM,,> 100 µM,,,,,,,,,
Cc1ccc(S(=O)(=O)N/N=C/CN2C(=O)c3ccccc3C2=O)cc1,> 100 µM,,> 100 µM,,> 100 µM,> 100 µM,,> 100 µM,> 100 µM,,,,,,,,,,,
CC(C)S(=O)(=O)ON1C(=O)c2ccc([N+](=O)[O-])cc2C1=O,> 100 µM,> 100 µM,,> 100 µM,> 100 µM,> 100 µM,> 100 µM,> 100 µM,> 100 µM,,> 100 µM,,,,,,,,,
O=C(O)CSc1nnc(COc2ccccc2)n1-c1ccccc1,> 100 µM,> 100 µM,> 100 µM,> 100 µM,> 100 µM,> 100 µM,> 100 µM,> 100 µM,,,> 100 µM,,,,,,,,,
CC(=O)[O-].CC(=O)[O-].CC(=O)[O-].CC(=O)[O-].CO.CO.CO.[Rh+2].[Rh+2].c1ccc(-c2ccccn2)nc1,> 100 µM,> 100 µM,> 100 µM,> 100 µM,> 100 µM,> 100 µM,> 100 µM,> 100 µM,> 100 µM,,,> 100 µM,> 100 µM,> 100 µM,> 100 µM,> 100 µM,> 100 µM,> 100 µM,> 100 µM,> 100 µM
O=C(c1nc2ccccc2[nH]1)C1C(c2cccc([N+](=O)[O-])c2)C2CC3CCCCC3N2[C@@]12C(=O)Nc1cc(Cl)ccc12 (stereo partly drawn),3.1 µM,3.7 µM,5.6 µM,3.5 µM,,3.63 µM,,4.91 µM,4.31 µM,1.37 µM,3.64 µM,1.69 µM,1.81 µM,1.71 µM,1.63 µM,,1.18 µM,,2.12 µM,1.78 µM
c1ccc2c(Nc3ccc4c(c3)OCO4)c3ccoc3nc2c1,31.2 µM,58.6 µM,25.6 µM,35.2 µM,> 100 µM,,36.6 µM,42.9 µM,,12.7 µM,43.3 µM,8.85 µM,19.2 µM,3.26 µM,14.2 µM,16.5 µM,,15.5 µM,19.4 µM,
CC1CC(=O)CC[C@@H]1OCc1ccccc1 (stereo partly drawn),> 100 µM,,> 100 µM,> 100 µM,> 100 µM,> 100 µM,> 100 µM,> 100 µM,> 100 µM,,,,,,,,,,,
CCC(C)Cn1c(C)nc2c1C(=O)c1ccccc1C2=O (stereo not drawn),29.6 µM,> 100 µM,,> 100 µM,34.3 µM,> 100 µM,66.7 µM,> 100 µM,> 100 µM,,78.9 µM,,,,,,,,,
